Assay results published in publication PMC4929710, “Specificity and mechanism of action of alpha-helical membrane-active peptides interacting with model and biological membranes by single-molecule force spectroscopy” (Scientific Reports, 2016).
Like-named read-outs stand apart in the source and are kept apart here.

How the values were obtained:
3T3-L1 cells = format: cell-based, mouse; details: 24 h
Description: (§1) The MTT cell proliferation assay was used to investigate the anticancer activity and cytotoxicity of MAPs against cancer cell lines (HeLa, A549, SGC-7901, and B16) and normal cells (3T3-L1), respectively. Cells (5 × 10^3) were seeded in 96-well plates and incubated overnight. The peptide samples were then added to cells with final concentrations ranging from 1 μM to 125 μM. After 24 h, 20 μL of 5 mg/mL MTT solution in PBS was added to the cells and treated for 4 h at 37 °C. The formazan crystals were dissolved by 150 μL of dimethyl sulfoxide (DMSO). Finally, the absorbance was determined at 492 nm. The results were expressed as IC50, representing the concentration at which cell viability was reduced by 50%. All assays were repeated in triplicate.

B16 cells = format: cell-based, mouse; details: 24 h
Description: as §1

HeLa cells = format: cell-based, human; details: 24 h
Description: as §1

SGC7901 cells = format: cell-based, human; details: 24 h
Description: as §1

A549 cells = format: cell-based, human; details: 24 h
Description: as §1

[1] = test system: gram-positive bacteria (S. aureus and S. epidermidis); format: cell-based
Description: (§2) Then, 10 μL of peptides was added. […] All assays were repeated in triplicate.

P. aeruginosa ATCC27853 = format: cell-based
Description: as §2

S. aureus ATCC25923 = format: cell-based
Description: as §2

[2] = test system: gram-negative bacteria (P. aeruginosa and E. coli); format: cell-based
Description: as §2

S. epidermidis ATCC12228 = format: cell-based
Description: as §2

E. coli ATCC25922 = format: cell-based
Description: as §2

PC/PG (7:3 w/w) LUVs = test: Single-molecule force spectroscopy (AFM); format: binding; details: RMS ± SD; N-terminal Cys peptide on AFM tip via PEG linker; prokaryotic model membrane
Description: (§3) Based on the above results, five selected peptides of V13L, A12L/A20L, V13K, V13E, and L6A/L17A, with different hydrophobicity and charges were used to examine the interaction probabilities and forces between peptides and membranes, both on the lipid model membranes and on the biological membranes by SMFS based on AFM, respectively. A cysteine residue was covalently introduced to the N-terminus of peptides and provided a free sulfhydryl group to modify the tips of the AFM. A PEG linker was used since each heterobifunctional PEG–NHS linker (approximately 20 nm) can only covalently connect with a single peptide molecule, which guarantees a single-molecule interaction between MAPs and biological membranes in real time[19]. If an AFM tip was functionalized with two or more peptides, where several peaks were recorded. In the reports, data with two peaks were not collected and calculated. For one force–distance cycle, one peptide-functionalized AFM tip approached the model and biological membranes right on the top, and the subsequent tip was withdrawn from the cell membranes to retrace the process. […] In addition, blocking experiment was used to test the specificity of these force events. As the electrostatic attraction is one important reason for peptides approaching model membranes and biological membranes, the Tris-HCl buffer including plenty amino groups[20] was injected into the working chamber and inhibits the interactions between MAPs and model membranes/biological membranes. […] The unbinding forces of V13L against different model membranes and biological membranes with the loading rate of 1 × 10^5 pN s^−1 are shown in Fig. 3c,f–h,j–l.
(§4) In accordance with previously described methods, LUVs were prepared with PC/PG (7:3 w/w), PC/Chol (8:1 w/w), and PC/SM/PE/PS/Chol (4.35:4.35:1:0.3:1 w/w) to mimic prokaryotic cell, […], membranes, respectively. Lipids using the freeze-thaw method as described previously, followed by extrusion through […] double-stacked nuclepore filters using an Mini-Extruder (Avanti Polar Lipids, Inc.)[11][27].
(§5) The AFM tip was first washed with concentrated sulfuric acid and hydrogen peroxide (3:1, v:v). The tip was dried using ozone (O3) for 15 min and dried overnight in a dryer. The tip was then modified with APTES under an argon atmosphere and the peptide connected with a PEG–NHS linker. Finally, the AFM tip linked with the peptide was washed three times in PBS and kept at 4 °C. A 500-μL LUV suspension was deposited on Lys coated glass and the LUVs were absorbed on the surface for 1 h at 65 °C [9][29]. A. laidlawii was deposited on poly-L-lysine coated glass and absorbed for 1 h at 37 °C [30]. The 3T3-L1 and HeLa cells were cultured on glass slides in Dulbecco’s modified Eagle’s medium (DMEM). Before performing force spectroscopy experiments, the cells were washed with fresh DMEM three times to remove the cell metabolites. Isolation of chicken erythrocytes was carried out at room temperature. Then the erythrocytes were washed three times in 2 mL PBS buffer by centrifuge (1,000 rpm) and resuspended in PBS buffer. 200 μL erythrocyte suspension were deposited onto poly-L-lysine coated glass for 20 min[10]. The force measurements of MAPs with LUVs mimicking membranes and living cells were performed using the AFM5500 (Agilent Technologies, Chandler, AZ, USA)[19].

[3] = test system: PC/SM/PE/PS/Chol (4.35:4.35:1:0.3:1 w/w) LUVs; test: Single-molecule force spectroscopy (AFM); format: binding; details: RMS ± SD; N-terminal Cys peptide on AFM tip via PEG linker; cancer cell model membrane
Description: as §3, §4, §5

[4] = test system: chicken erythrocyte membranes; test: Single-molecule force spectroscopy (AFM); format: binding; details: for Unbinding force Chicken erythrocyte: RMS ± SD, N-terminal Cys peptide on AFM tip via PEG linker
Description: as §3, §5

[5] = normal cells, MTT, 1-125 μM, triplicate, read-out: IC50 3T3-L1
[6] = MTT, 1-125 μM, triplicate, read-out: IC50 B16
[7] = MTT, 1-125 μM, triplicate, read-out: IC50 HeLa
[8] = MTT, 1-125 μM, triplicate, read-out: IC50 SGC7901
[9] = MTT, 1-125 μM, triplicate, read-out: IC50 A549
[10] = geometric mean of MIC values from two gram-positive strains
[11] = MH medium, 5 × 10^5 CFU/mL, 24 h, 37 °C, triplicate
[12] = geometric mean of MIC values from two gram-negative strains

| Molecule | IC50 (3T3-L1 cells; [5]) | IC50 (B16 cells; [6]) | IC50 (HeLa cells; [7]) | IC50 (SGC7901 cells; [8]) | IC50 (A549 cells; [9]) | G+ MIC GM [1, 10] | G− MIC P. aeruginosa ATCC27853 (P. aeruginosa ATCC27853; [11]) | G+ MIC S. aureus ATCC25923 (S. aureus ATCC25923; [11]) | G− MIC GM [2, 12] | G+ MIC S. epidermidis ATCC12228 (S. epidermidis ATCC12228; [11]) | G− MIC E. coli ATCC25922 (E. coli ATCC25922; [11]) | Unbinding force PC/PG (PC/PG (7:3 w/w) LUVs) | Unbinding force PC/SM/PE/PS/Chol [3] | Unbinding force Chicken erythrocyte [4] | IC50 (3T3-L1 cells) | IC50 (B16 cells) | IC50 (HeLa cells) | IC50 (SGC7901 cells) | IC50 (A549 cells) | G+ MIC GM [1] | also measured |
| --- | --- | --- | --- | --- | --- | --- | --- | --- | --- | --- | --- | --- | --- | --- | --- | --- | --- | --- | --- | --- | --- |
| CC[C@H](C)[C@H](NC(=O)[C@H](C)NC(=O)[C@H](CCCCN)NC(=O)[C@H](CC(C)C)NC(=O)[C@H](C)NC(=O)[C@@H](NC(=O)[C@H](Cc1cnc[nH]1)NC(=O)[C@H](CC(C)C)NC(=O)[C@@H](NC(=O)[C@@H](NC(=O)[C@H](CCCCN)NC(=O)[C@H](CCCCN)NC(=O)[C@H](C)NC(=O)[C@H](CO)NC(=O)[C@H](CCCCN)NC(=O)[C@H](Cc1ccccc1)NC(=O)[C@@H](NC(=O)[C@H](CCCCN)NC(=O)[C@H](CC(C)C)NC(=O)[C@H](Cc1ccccc1)NC(=O)[C@H](CO)NC(=O)[C@H](CCCCN)NC(=O)[C@H](Cc1c[nH]c2ccccc12)NC(=O)[C@H](CCCCN)NC(C)=O)[C@@H](C)O)[C@@H](C)O)C(C)C)[C@@H](C)O)C(=O)N[C@@H](CO)C(=O)N[C@@H](CO)C(N)=O [Peptide V13K] | 26.2 µM | 11.9 µM | 13.1 µM | 18.9 µM | 24.4 µM | 11.31 µM | 8 µM | 32 µM | 8 µM | 4 µM | 8 µM | 135 ± 36 pN | 128 ± 51 pN | 87 ± 39 pN | – | – | – | – | – | – | – |
| Ac-KWKSFLKTFKSALKTVLHTALKAISS-NH2 [Peptide V13L] | – | – | – | – | – | – | – | – | – | – | – | 127 ± 34 pN | 124 ± 40 pN | 76 ± 34 pN | 6.55 µM | 3.51 µM | 4.86 µM | 2 µM | 2.8 µM | 4 µM | G− MIC P. aeruginosa ATCC27853 (P. aeruginosa ATCC27853; ATCC27853, 24 h): 8 µM; G+ MIC S. aureus ATCC25923 (S. aureus ATCC25923; ATCC25923, 24 h): 8 µM; G− MIC GM [2]: 5.66 µM; G+ MIC S. epidermidis ATCC12228 (S. epidermidis ATCC12228; ATCC12228, 24 h): 2 µM; G− MIC E. coli ATCC25922 (E. coli ATCC25922; ATCC25922, 24 h): 4 µM; Interaction probability of the force signal ([4]; chicken erythrocyte membranes, out of about 1000 force cycles): about 18% |
| Ac-KWKSFLKTFKSAEKTVLHTALKAISS-NH2 [Peptide V13E] | – | – | – | – | – | – | – | – | – | – | – | 111 ± 37 pN | 92 ± 34 pN | 59 ± 35 pN | > 125 µM | 120 µM | 73.7 µM | 92 µM | 110 µM | 125 µM | G− MIC P. aeruginosa ATCC27853 (P. aeruginosa ATCC27853; ATCC27853, 24 h): 125 µM; G+ MIC S. aureus ATCC25923 (S. aureus ATCC25923; ATCC25923, 24 h): 125 µM; G− MIC GM [2]: 89.44 µM; G+ MIC S. epidermidis ATCC12228 (S. epidermidis ATCC12228; ATCC12228, 24 h): 125 µM; G− MIC E. coli ATCC25922 (E. coli ATCC25922; ATCC25922, 24 h): 64 µM |
| Ac-KWKSFAKTFKSAKKTVAHTALKAISS-NH2 [L6A/L17A] | > 125 µM | > 125 µM | > 125 µM | > 125 µM | > 125 µM | 125 µM | 125 µM | 125 µM | 125 µM | 125 µM | 125 µM | 132 ± 41 pN | 130 ± 36 pN | 78 ± 39 pN | – | – | – | – | – | – | – |
